Assay results taken from patent publication US12161116B1, “Ethyl-2-{[(2,4-dichlorobenzoyl carbamothioyl]amino}-4,5,6,7-tetrahydro-1-benzothiophene-3-carboxylate as an eco-friendly insecticidal agent against Spodoptera littoralis (boisd.)” (priority 2023, dated 2024).
Values after ≈ are worked out from the molar mass of the structure shown. Like-named read-outs stand apart in the source and are kept apart here.

Tested on: Spodoptera littoralis
Experiment: Insecticidal bioassay screening (castor leaf dip) on second and fourth instar larvae
Assay type: in vivo
Details: for Toxicity index %: 72 hrs, Diflubenzuron's LC50 / the compound's LC50 × 100; for LC90 (mg/L) at 95%: after 72 hrs of treatment, treated castor leaves; for LC50: Spodoptera littoralis, in Gossypium hirsutum, foliar, 72 h
Description: Five concentrations (200, 100, 50, 25, 12.5 ppm) were designed for this synthetic compound and the reference Diflubenzuron compound as the dynamic ingredients based on mg/L via diluting the commercial formulation.
In this experiment, castor leaves are immersed in each of the previously prepared concentrations of the components for 10 seconds and then left to dry for 60 minutes. Larvae of the second and fourth instars of each checked strain are prepared with treated leaves in gauze-covered glass containers for 72 hrs. An untreated control is made in which leaves are dipped in triton x-100 and distilled water only. Then the preserved leaves were removed & fresh, untreated leaves were provided for 72 hours. Three replicates (10 larvae each) were checked for each concentration. Daily inspection was carried out for all treatments and mortality percentages were recorded 3 days (72 hours) after treatment. The average mortality percentage was corrected employing Abbott's formula. The corrected mortality rate for each of the previously synthesized compounds is statistically calculated according to Finney (1970). Through this rate, the corresponding concentration test lines (LDP lines) are assessed.

[1] = read-out: LC50 (mg/L) at 95%, 2nd instar larvae, after 72 hrs of treatment, treated castor leaves
[2] = read-out: LC50 (mg/L) at 95%, 4th instar larvae, after 72 hrs of treatment, treated castor leaves

Row | Structure (SMILES) | Toxicity index % (2nd instar larvae) | LC90 (mg/L) at 95% (2nd instar larvae) | Toxicity index % (4th instar larvae) | LC90 (mg/L) at 95% (4th instar larvae) | LC50 [1] | LC50 [2]
1 | O=C(NC(=O)c1c(F)cccc1F)Nc1ccc(Cl)cc1 [Diflubenzuron] | 100% | 520.0 mg/L (≈ 1670 µM) | 100% | 1540.5 mg/L (≈ 4960 µM) | 45.2 mg/L (≈ 145 µM) | 144 mg/L (≈ 464 µM)
2 | CCOC(=O)c1c(NC(=S)NC(=O)c2ccc(Cl)cc2Cl)sc2c1CCCC2 [Ethyl-2-{[(2,4-dichlorobenzoyl)carbamothioyl]amino}-4,5,6,7-tetrahydro-1-benzothiophene-3-carboxylate] |  |  |  |  | ~270 mg/L (≈ 591 µM) | ~631 mg/L (≈ 1380 µM)
